This is an account of results in article PMC6669961, “Design and Optimization of Thioglycosyl–naphthalimides as Efficient Inhibitors Against Human O-GlcNAcase” (Frontiers in Chemistry, 2019).

SMILES strings stand for the structures. Read-outs that look alike come from different tables or passages of the source.

One experiment concerns the target HsHexB. To be noted: read-out: Ki against HsHexB, cited from earlier work.
For a further experiment, the target named is hOGA. The following applies: read-out: Ki against hOGA, cited from earlier work.
Experiment [1] deals with T1, human β-N-acetylhexosaminidase B (HsHexB) (Homo sapiens, UniProt P07686).
T1 construct: made in house; host or cells: Pichia pastoris
T1 sequence (P07686 122-556): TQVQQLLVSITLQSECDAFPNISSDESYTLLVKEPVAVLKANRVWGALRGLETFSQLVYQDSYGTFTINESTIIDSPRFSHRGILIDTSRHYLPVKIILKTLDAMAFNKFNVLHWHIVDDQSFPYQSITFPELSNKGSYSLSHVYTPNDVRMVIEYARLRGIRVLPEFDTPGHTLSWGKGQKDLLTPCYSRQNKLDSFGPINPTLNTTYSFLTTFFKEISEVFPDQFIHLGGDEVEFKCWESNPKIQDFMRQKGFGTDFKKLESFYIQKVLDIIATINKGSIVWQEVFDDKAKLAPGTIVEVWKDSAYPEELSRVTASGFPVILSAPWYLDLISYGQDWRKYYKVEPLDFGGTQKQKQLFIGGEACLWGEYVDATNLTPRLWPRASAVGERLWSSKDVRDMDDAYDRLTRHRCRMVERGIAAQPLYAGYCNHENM
Kind of experiment: Enzyme inhibitory activity test against HsHexB (4-MU-GlcNAc substrate, end-point fluorescence; Dixon plots for Ki). The class given is biochemical. To be noted: pH 4.5; for inhibition at 100 µM: 100 μM inhibitor, 40 μM 4-MU-GlcNAc, 30°C, 30 min, read-out: Inhibition rate at 100 μM (%) HsHexB; for Ki: Dixon plots, 4-MU-GlcNAc 40, 20, 10 μM. How it is done:
(§1) Human O-GlcNAcase (hOGA) was expressed in Escherichia coli BL21(DE3) and purified according to previous methods (Kong et al., [2016]). Human β-N-acetylhexosaminidase B (HsHexB) was overexpressed in Pichia pastoris and then purified as described previously (Shen et al., [2018a]).
(§2) All target compounds were evaluated for their inhibitory activities against hOGA and HsHexB in end-point experiments. 4-Methylumbelliferyl N-acetyl-β-D-glucosaminide (4-MU-GlcNAc) was used as substrate. In a final assay volume of 100 μL, inhibitor and substrate (40 μM) were mixed with Britton-Robinson buffer (hOGA, pH 6.5; HsHexB, pH 4.5) and enzyme; then, the assay components were incubated at 30°C for 30 min. Subsequently, the enzymatic reaction was terminated by the addition of 100 μL 0.5 M Na2CO3 solution. The fluorescence of the liberated 4-methylumbelliferone (Mu) was quantified at an excitation of 366 nm and emission of 445 nm on a Varioskan Flash microplate reader (Thermo Fisher Scientific, USA). To determine the inhibition constant (Ki), Dixon plots were performed by changing the concentration of the 4-MU-GlcNAc (40, 20, and 10 μM).

A further experiment has as its target T2, human O-GlcNAcase (hOGA) (Homo sapiens, UniProt O60502).
T2 construct: made in house; host or cells: Escherichia coli BL21(DE3)
T2 sequence (O60502 1-916): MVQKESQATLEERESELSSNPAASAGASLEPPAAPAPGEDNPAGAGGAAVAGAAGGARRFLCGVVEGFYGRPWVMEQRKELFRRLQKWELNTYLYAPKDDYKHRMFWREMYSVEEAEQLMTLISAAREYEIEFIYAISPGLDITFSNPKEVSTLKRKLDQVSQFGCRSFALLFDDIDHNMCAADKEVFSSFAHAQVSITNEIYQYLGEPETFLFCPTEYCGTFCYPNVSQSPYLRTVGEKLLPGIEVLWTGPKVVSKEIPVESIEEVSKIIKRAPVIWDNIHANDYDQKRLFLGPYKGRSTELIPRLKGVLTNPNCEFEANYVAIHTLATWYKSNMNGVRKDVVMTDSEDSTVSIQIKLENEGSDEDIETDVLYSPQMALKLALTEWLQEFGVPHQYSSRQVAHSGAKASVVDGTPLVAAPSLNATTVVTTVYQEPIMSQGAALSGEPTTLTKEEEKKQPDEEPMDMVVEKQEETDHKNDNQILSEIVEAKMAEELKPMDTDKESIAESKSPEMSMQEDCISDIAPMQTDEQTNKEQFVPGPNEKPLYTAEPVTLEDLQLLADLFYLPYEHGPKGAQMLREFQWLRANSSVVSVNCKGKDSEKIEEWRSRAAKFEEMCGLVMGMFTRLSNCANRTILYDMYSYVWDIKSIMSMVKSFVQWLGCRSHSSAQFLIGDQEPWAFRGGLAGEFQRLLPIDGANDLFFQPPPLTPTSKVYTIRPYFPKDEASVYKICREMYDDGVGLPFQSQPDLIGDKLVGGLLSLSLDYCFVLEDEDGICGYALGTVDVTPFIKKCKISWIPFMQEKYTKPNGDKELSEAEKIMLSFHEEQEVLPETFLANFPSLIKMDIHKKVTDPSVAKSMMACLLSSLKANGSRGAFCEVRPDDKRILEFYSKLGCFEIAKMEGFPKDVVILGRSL
In words: Enzyme inhibitory activity test against hOGA (4-MU-GlcNAc substrate, end-point fluorescence; Dixon plots for Ki). The experiment is classed as biochemical. The following applies: for inhibition at 100 µM: 100 μM inhibitor, 40 μM 4-MU-GlcNAc, 30°C, 30 min, read-out: Inhibition rate at 100 μM (%) hOGA; for inhibition at 100 µM / Ki: pH 6.5; for Ki: Dixon plots, 4-MU-GlcNAc 40, 20, 10 μM. How it is done:
as §1, §2

The target in a further experiment is HsHex. To be noted: read-out: Ki against HsHex, cited from earlier work.
Setting [2] is: 13r (3) of previous research, ref Shen et al., 2018b.
[3] abbreviates: lead compounds 15b (1) and 5c (2) of previous research, ref Chen et al., 2018, Shen et al., 2018a.
Where [4] appears, read: Gluco-nagstatin, ref Terinek and Vasella, 2005.
Where [5] appears, read: GlcNAcstatin C, ref Dorfmueller et al., 2009.

A word on the Ki: it is the equilibrium dissociation constant of an inhibitor or competing ligand from its target. Take `CC(=O)N[C@@H]1[C@@H](O)[C@H](O)[C@@H](CO)O[C@H]1SCCNCCCN1C(=O)c2cccc3c(N4CCCCC4)ccc(c23)C1=O` [Compound 3]: the Ki at HsHexB (setting [2]) was greater than 100 µM; at hOGA (setting [2]) it was 0.6 µM.
As a reminder, the inhibition is the change of the read-out against control, counted positive when it falls. Regarding `CC(=O)N[C@@H]1[C@@H](O)[C@H](O)[C@@H](CO)O[C@H]1SCC(=O)NCCCN1C(=O)c2cccc3cccc(c23)C1=O` [Compound 2, reference compound], the inhibition at 100 µM in experiment [1] came out at 45.5 ± 0.5%; on human O-GlcNAcase (hOGA), 97.6 ± 0.9%. Besides, the Ki in experiment [1] is greater than 100 µM; on human O-GlcNAcase (hOGA), 3.46 ± 0.11 µM; at HsHexB (setting [3]) it was greater than 100 µM; on hOGA (setting [3]), 3.46 µM.
Turning to `CC(=O)N[C@H]1c2nc(CC(=O)O)cn2[C@H](CO)[C@@H](O)[C@@H]1O` [Gluco-nagstatin], the values for the Ki on HsHex (setting [4]) and at hOGA (setting [4]) were 0.01 µM and 0.42 µM, respectively.
With `CC(=O)OC[C@H]1O[C@@H](SCC(=O)NCCCN2C(=O)c3cccc4c(N5CCCCC5)ccc(c34)C2=O)[C@@](O)(NC(=O)c2ccc(F)cc2)[C@@H](OC(C)=O)[C@@H]1OC(C)=O` [Compound 1], the Ki at HsHexB (setting [3]) was 30.4 µM; at hOGA (setting [3]), 3.8 µM.
Take `CC(C)C(=O)N[C@H]1c2nc(CCc3ccccc3)cn2[C@H](CO)[C@@H](O)[C@@H]1O` [GlcNAcstatin C]: the figures for the Ki at HsHex (setting [5]) and on hOGA (setting [5]) were 0.55 µM and 0.0044 µM, respectively.
`CC1=N[C@@H]2[C@@H](O)[C@H](O)[C@@H](CO)O[C@@H]2S1` [NGT, NAG-thiazoline]: the Ki at HsHex (NGT, ref Knapp et al., 1996) was 0.07 µM.
For `CCNC1=N[C@@H]2[C@@H](O)[C@H](O)[C@@H](CO)O[C@@H]2S1` [Thiamet-G], the inhibition constant (Ki) at HsHex (Thiamet-G, ref Yuzwa et al., 2008) is 750 µM.
`O=C(CS[C@@H]1O[C@H](CO)[C@@H](O)[C@H](O)[C@H]1NC(=O)OCc1ccccc1)NCCCN1C(=O)c2cccc3c(N4CCCCC4)ccc(c23)C1=O` [Compound 16c]: in experiment [1], the inhibition at 100 µM came out at 2 ± 1.1% and the Ki was greater than 100 µM. For the same molecule, at human O-GlcNAcase (hOGA), the inhibition at 100 µM was 9.7 ± 0.7% and the Ki was greater than 100 µM.
Consider `O=C(CS[C@@H]1O[C@H](CO)[C@@H](O)[C@H](O)[C@H]1NC(=O)c1ccccc1)NCCCN1C(=O)c2cccc3c(N4CCCCC4)ccc(c23)C1=O` [Compound 16a], for which, in experiment [1], the inhibition at 100 µM stood at 12.2 ± 0.2% and the Ki is greater than 100 µM. In addition, at human O-GlcNAcase (hOGA), the inhibition at 100 µM amounted to 22 ± 0.5% and the inhibition constant Ki is greater than 100 µM.
For `CC(=O)N[C@@H]1[C@@H](O)[C@H](O)[C@@H](CO)O[C@H]1SCC(=O)NCCCN1C(=O)c2cccc3c(Br)ccc(c23)C1=O` [Compound 10a], in experiment [1], the inhibition at 100 µM was determined as 36.5 ± 0.8% and the Ki was greater than 100 µM. In addition, at human O-GlcNAcase (hOGA), the inhibition at 100 µM came to 98.7 ± 0.3% and the Ki worked out at 0.61 ± 0.02 µM. Moreover, the “increase in potency against hOGA” value on human O-GlcNAcase (hOGA) (compared to lead compound 2 (Ki)) is reported as roughly 6 fold. For the same molecule, the “inhibitory mechanism toward hOGA” value at human O-GlcNAcase (hOGA) (kinetic studies via Dixon plots) was “competitive inhibitors”.
